This note sets out measurements from patent US20080242681A1, “N-4-(6-(Hetero)Aryl-Pyrimidin-4-Ylaminophenyl)-Benzenesulfonamides as Kinase Inhibitors” (Altana Pharma AG, priority 2004, published 2008).

Structures can show the parent of a compound that is named as a salt.

Common to all, as to format: biochemical
One assay addresses T1, PKA (Homo sapiens, UniProt P17612).
T1 construct: purchased Panvera
Put plainly: Protein Kinase A assay (SPA). The settings on record: human recombinant PKA, read-out: IC50, inhibition of PKA. How it is done: (§1) The compounds of formula 1 are tested for their activity on different protein kinases and PKC isoforms using a scintillation proximity assay (SPA, Amersham International plc). ^33P-labeled peptides are captured onto streptavidin coated yttrium silicate SPA beads. β-particles, emitted from the captured ^33P-labeled substrate in close proximity to the bead are able to excite the scintillant, resulting in the generation of quantifiable light. The assay is performed in a 96-well polystyrene microtiterplate (1450-514, Isoplates, Wallac, Turku, Finland). The reaction mixture (50 μl) contains 10 μl of the test compound together with 10 μl of the relevant kinase, diluted in the relevant dilution buffer, 5 μl of 10 μM phorbol myristate acetate (PMA) in H2O, 5 μl of 1.6 mM phosphatidylserine (Sigma-Aldrich Chemie GmbH, Stein-heim, Germany) in 20 mM Tris/HCL buffer pH 7.4, 5 μl of 0.3% BSA in H2O, 5 μl of 30 μM relevant substrate and 10 μl of 5 μM ATP and 0.1 μCi of ^33P-ATP (Amersham, Freiburg, Germany) in 200 mM Tris/HCL pH 7.5 and 200 mM MgCl2. Incubation is performed for 40 min at room temperature (RT) without shaking. Reaction is stopped by adding 150 μl of cold stop solution containing 10 mM ATP, 5 mM EGTA pH 7.5, 0.1% Triton X-100 and 0.2 mg streptavidin coated yttrium silicate SPA beads (Amersham, RPNQ 0012). The sealed plate is incubated for 60 min at RT. Thereafter the MTP is counted in a Microbeta Jet (Wallac). IC50 measurement is performed on a routine basis by incubation a serial dilution of inhibitor at concentrations ranging between 0.01 and 100 μM according to the method described above. Background values are the signals of the reaction mixture without addition of the relevant kinase and are subtracted from all values. 100% values are the signals of the reaction mixture without addition of inhibitors.
Human recombinant PKA was obtained from Panvera and is used in a scintillation proximity assay described in Section A.1. […] Thereafter the MTP is counted in a Microbeta Jet (Wallac). […] IC50 values are calculated from the graph by sigmoidal curve fitting.

The next assay deals with T2, PKCζ (Homo sapiens, UniProt Q05513).
T2 construct: purchased Panvera
T2 sequence (Q05513 1-592): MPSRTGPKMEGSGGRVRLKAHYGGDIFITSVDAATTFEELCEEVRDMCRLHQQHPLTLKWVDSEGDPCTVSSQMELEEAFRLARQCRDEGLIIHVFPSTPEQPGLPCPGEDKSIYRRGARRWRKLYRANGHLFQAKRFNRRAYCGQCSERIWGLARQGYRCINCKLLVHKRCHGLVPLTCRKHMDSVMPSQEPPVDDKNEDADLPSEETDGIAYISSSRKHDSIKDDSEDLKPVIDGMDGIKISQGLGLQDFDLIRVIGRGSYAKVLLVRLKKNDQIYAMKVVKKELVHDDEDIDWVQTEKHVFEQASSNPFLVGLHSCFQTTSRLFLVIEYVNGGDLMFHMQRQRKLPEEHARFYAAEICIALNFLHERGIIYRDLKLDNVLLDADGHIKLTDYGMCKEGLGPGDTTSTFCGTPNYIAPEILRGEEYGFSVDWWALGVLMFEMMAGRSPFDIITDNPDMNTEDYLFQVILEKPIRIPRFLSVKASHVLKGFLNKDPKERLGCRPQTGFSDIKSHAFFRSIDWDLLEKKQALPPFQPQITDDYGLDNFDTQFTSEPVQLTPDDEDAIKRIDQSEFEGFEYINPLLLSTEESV
The assay is described as follows: Protein Kinase C ζ assay (SPA). Particulars: human recombinant PKCζ, absence of PMA and phosphatidylserine, read-out: IC50, inhibition of PKC ζ. How it is done:
The compounds of formula 1 are tested for their activity on different protein kinases and PKC isoforms using a scintillation proximity assay (SPA, Amersham International plc). ^33P-labeled peptides are captured onto streptavidin coated yttrium silicate SPA beads. β-particles, emitted from the captured ^33P-labeled substrate in close proximity to the bead are able to excite the scintillant, resulting in the generation of quantifiable light. The assay is performed in a 96-well polystyrene microtiterplate (1450-514, Isoplates, Wallac, Turku, Finland). The reaction mixture (50 μl) contains 10 μl of the test compound together with 10 μl of the relevant kinase, diluted in the relevant dilution buffer, 5 μl of 10 μM phorbol myristate acetate (PMA) in H2O, 5 μl of 1.6 mM phosphatidylserine (Sigma-Aldrich Chemie GmbH, Stein-heim, Germany) in 20 mM Tris/HCL buffer pH 7.4, 5 μl of 0.3% BSA in H2O, 5 μl of 30 μM relevant substrate and 10 μl of 5 μM ATP and 0.1 μCi of ^33P-ATP (Amersham, Freiburg, Germany) in 200 mM Tris/HCL pH 7.5 and 200 mM MgCl2. […] Thereafter the MTP is counted in a Microbeta Jet (Wallac). […]
(§2) Dependent on the efficacy of the inhibitors In the various test systems, corresponding IC50 values are calculated from concentration-inhibition curves by nonlinear regression analysis using the program GraphPad Prism (GraphPad Software Inc., San Diego, Calif.). […]

The next assay addresses T3, PKCι (Homo sapiens, UniProt P41743).
T3 construct: made in house; host or cells: Sf21 insect cells
T3 sequence (P41743 1-596): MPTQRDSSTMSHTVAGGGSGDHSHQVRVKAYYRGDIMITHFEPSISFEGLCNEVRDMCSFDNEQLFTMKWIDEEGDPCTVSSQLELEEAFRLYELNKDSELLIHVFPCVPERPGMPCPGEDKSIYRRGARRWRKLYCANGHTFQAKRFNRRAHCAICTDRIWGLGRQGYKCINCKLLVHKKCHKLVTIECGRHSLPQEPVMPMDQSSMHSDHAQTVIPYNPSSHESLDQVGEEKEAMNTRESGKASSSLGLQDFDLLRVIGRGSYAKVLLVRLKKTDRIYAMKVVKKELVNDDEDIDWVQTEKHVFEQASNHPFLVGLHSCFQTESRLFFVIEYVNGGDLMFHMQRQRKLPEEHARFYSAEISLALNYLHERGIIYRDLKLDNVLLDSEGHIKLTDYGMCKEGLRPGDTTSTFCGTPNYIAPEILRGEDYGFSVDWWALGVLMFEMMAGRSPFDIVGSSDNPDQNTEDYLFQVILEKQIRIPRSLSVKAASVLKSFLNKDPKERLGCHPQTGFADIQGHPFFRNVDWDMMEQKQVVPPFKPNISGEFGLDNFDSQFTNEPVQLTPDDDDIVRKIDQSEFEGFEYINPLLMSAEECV
The assay is described as follows: Protein Kinase C ι assay (SPA). Particulars: human recombinant PKCι from Sf21 insect cells, absence of PMA and phosphatidylserine, read-out: IC50, inhibition of PKC ι. How it is done: as §1, §2

A further assay has as its target T4, PKCε (Homo sapiens, UniProt Q02156).
T4 construct: purchased Panvera
T4 sequence (Q02156 1-737): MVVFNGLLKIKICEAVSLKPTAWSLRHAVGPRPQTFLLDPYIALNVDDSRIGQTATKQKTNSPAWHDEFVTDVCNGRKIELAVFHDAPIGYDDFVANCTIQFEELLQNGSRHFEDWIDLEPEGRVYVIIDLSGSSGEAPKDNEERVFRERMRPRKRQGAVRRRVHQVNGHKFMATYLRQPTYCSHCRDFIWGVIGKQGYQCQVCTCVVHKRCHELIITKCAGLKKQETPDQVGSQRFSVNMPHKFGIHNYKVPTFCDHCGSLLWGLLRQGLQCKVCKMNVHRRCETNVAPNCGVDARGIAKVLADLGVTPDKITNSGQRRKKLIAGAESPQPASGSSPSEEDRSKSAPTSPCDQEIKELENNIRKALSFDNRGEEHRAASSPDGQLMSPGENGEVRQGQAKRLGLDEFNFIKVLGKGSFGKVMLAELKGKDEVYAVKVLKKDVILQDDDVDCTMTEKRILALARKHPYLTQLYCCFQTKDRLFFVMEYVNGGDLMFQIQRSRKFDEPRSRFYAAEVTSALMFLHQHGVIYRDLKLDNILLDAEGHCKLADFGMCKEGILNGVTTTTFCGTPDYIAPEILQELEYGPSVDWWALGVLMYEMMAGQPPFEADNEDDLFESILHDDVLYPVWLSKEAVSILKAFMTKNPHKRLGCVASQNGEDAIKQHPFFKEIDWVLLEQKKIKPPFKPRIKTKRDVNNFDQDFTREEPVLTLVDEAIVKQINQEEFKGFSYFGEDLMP
The assay is described as follows: Protein Kinase C ε assay (SPA). The settings on record: human recombinant PKCε, PKCη pseudosubstrate, read-out: IC50, inhibition of PKC ε. As for the experimental part: as §1
Dependent on the efficacy of the inhibitors In the various test systems, corresponding IC50 values are calculated from concentration-inhibition curves by nonlinear regression analysis using the program GraphPad Prism (GraphPad Software Inc., San Diego, Calif.).
Human recombinant PKCε was obtained from Panvera and is used under the assay conditions as described above (Section A.1). The enzyme is diluted in PKC dilution buffer containing 1 mM Hepes pH 7.4, 0.5 mM DTT and 0.001% Triton X-100. The kinase reaction is performed with the biotinylated PKCη pseudosubstrate solved in H2O.

A further assay addresses T5, PKCδ (Homo sapiens, UniProt Q05655).
T5 construct: purchased Panvera
The assay is described as follows: Protein Kinase C δ assay (SPA). The settings on record: human recombinant PKCδ, PKCη pseudosubstrate, read-out: IC50, inhibition of PKC δ. How it is done:
as §1, §2

T5 sequence (Q05655 whole entry): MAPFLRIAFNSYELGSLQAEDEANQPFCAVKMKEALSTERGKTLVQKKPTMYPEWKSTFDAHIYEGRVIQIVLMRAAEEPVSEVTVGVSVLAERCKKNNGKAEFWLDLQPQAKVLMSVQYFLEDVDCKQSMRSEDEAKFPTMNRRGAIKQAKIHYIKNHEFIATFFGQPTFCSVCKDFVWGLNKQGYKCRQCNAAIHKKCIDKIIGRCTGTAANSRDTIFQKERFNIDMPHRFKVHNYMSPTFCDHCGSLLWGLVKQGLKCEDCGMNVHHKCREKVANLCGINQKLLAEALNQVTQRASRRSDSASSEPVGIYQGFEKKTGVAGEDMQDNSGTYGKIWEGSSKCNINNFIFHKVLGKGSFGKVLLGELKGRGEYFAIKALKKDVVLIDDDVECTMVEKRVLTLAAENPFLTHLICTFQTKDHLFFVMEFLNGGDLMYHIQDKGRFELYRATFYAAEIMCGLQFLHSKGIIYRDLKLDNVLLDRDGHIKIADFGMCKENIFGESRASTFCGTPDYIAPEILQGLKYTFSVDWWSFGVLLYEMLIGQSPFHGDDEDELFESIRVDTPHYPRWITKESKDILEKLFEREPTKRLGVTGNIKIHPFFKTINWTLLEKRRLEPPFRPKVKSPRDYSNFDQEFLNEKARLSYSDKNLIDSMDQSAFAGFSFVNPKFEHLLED

With `O=S(=O)(Nc1ccc(Nc2cc(-c3ccc4[nH]ccc4c3)ncn2)cc1)c1cccc(F)c1` [Example 121, 3-Fluoro-N-{4-[6-(1H-indol-5-yl)-pyrimidin-4-ylamino]-phenyl}-benzenesulfonamide], the IC50 (usually the midpoint of a concentration-inhibition curve) on PKA fell in the range of 3 to 16 µM.

With `O=S(=O)(Nc1ccc(Nc2cc(-c3ccc4c(ccn4CCCN4CCCC4)c3)ncn2)cc1)c1c(F)cccc1F` [Example 143, 2,6-Difluoro-N-(4-{6-[1-(3-pyrrolidin-1-yl-propyl)-1H-indol-5-yl]-pyrimidin-4-ylamino}-phenyl)-benzenesulfonamide formic acid salt], the IC50 at PKCζ lay in the range of 15 to 25 µM.

For the compound `CCN(CC)CCCn1cc(-c2cc(Nc3ccc(NS(=O)(=O)c4ccc(F)cc4F)cc3)ncn2)c2ccccc21` [Example 175, N-(4-{6-[1-(3-Diethylamino-propyl)-1H-indol-3-yl]-pyrimidin-4-ylamino}-phenyl)-2,4-difluoro-benzenesulfonamide formic acid salt], the IC50 on PKCζ lay within 15 to 25 µM.

On to `O=S(=O)(Nc1ccc(Nc2cc(-c3cccc4ccccc34)ncn2)cc1)c1ccc(Cl)c(Cl)c1` [Example 10, 3,4-Dichloro-N-[4-(6-naphthalen-1-yl-pyrimidin-4-ylamino)-phenyl]-benzenesulfonamide], for which the IC50 on PKA lay within 3 to 16 µM.

As for `COc1ccc(S(=O)(=O)Nc2ccc(Nc3cc(-c4ccc5c(ccn5CCCN5CCCC5)c4)ncn3)cc2)cc1` [Example 145, 4-Methoxy-N-(4-{6-[1-(3-pyrrolidin-1-yl-propyl)-1H-indol-5-yl]-pyrimidin-4-ylamino}-phenyl)-benzenesulfonamide formic acid salt], the IC50 at PKCι is 7 to 34 µM.

As to `Cc1csc(-c2cc(Nc3ccc(NS(=O)(=O)c4c(F)cccc4F)cc3)ncn2)c1` [Example 117, 2,6-Difluoro-N-{4-[6-(4-methyl-thiophen-2-yl)-pyrimidin-4-ylamino]-phenyl}-benzenesulfonamide], the IC50 fell in the range of 4 to 21 µM at PKCε and 3 to 16 µM on PKA.

Consider `CN1CCN(CCCn2ccc3cc(-c4cc(Nc5ccc(NS(=O)(=O)c6ccc(F)c(Cl)c6)cc5)ncn4)ccc32)CC1` [Example 162, 3-Chloro-4-fluoro-N-[4-(6-{1-[3-(4-methyl-piperazin-1-yl)-propyl]-1H-indol-5-yl}-pyrimidin-4-ylamino)-phenyl]-benzenesulfonamide formic acid salt], for which the IC50 at PKCι was 7 to 34 µM.

With `CN(C)CCn1ccc2cc(-c3cc(Nc4ccc(NS(=O)(=O)c5ccc(F)c(Cl)c5)cc4)ncn3)ccc21` [Example 138, 3-Chloro-N-{4-[6-[1-(2-dimethylamino-ethyl)-1H-indol-5-yl]pyrimidin-4-ylamino]-phenyl}-4-fluoro-benzenesulfonamide], at PKCδ, the IC50 was 2 to 18 µM.
